Assay results reported in patent publication US5789395A, “Method of using tetracycline compounds for inhibition of endogenous nitric oxide production” (The Research Foundation of State University of New York, priority 1996, dated 1998).

Assays:
renal mesangial cells = experiment: NO production by IFN-γ/LPS-stimulated renal mesangial cells (Greiss reaction); assay type: cell-based, rat; details: for inhibition of NO production, time course: 24-72 hr; for Emax at 5 µg/mL: Rattus norvegicus, Mesangial cell, 5 μg/mL, 48 hr, P<0.01, read-out: inhibition of NO production, maximal effect
Description: The use of IFN-γ to induce renal injury is a model of glomerulonephritis known in the art. Glomerulonephritis is characterized by increased production of NO.

collagenase = details: cited from earlier work
NOS = details: competitive inhibitor; cited from earlier work
iNOS [1] = experiment: iNOS activity (L-arginine-to-L-citrulline) in cell-free extracts of cells treated with modulator before LPS; assay type: cell-based, murine; details: positive control
Method: Murine macrophage cells (RAW 264.7) were incubated with 20-80 μg/mL doxycycline or minocycline, 10 μM hydrocortisone (Sigma Chemical Co., St. Louis, Mo.), or 75 μM L-NMMA for 1-2 h, followed by addition of LPS at 100 ng/mL and incubation for 16-18 h. Cell-free extracts were prepared at the end of each time period. Specific activity of iNOS was determined in the cell-free extracts by monitoring the conversion of L-[^3 H]-arginine to L-[^3 H]-citrulline as described by Amin et al. (1995b) and Vyas et al. (1996).
Cell-free extracts were prepared as follows: Following induction by incubation with LPS, the cells were pelleted at 4° C. and resuspended in Tris buffer (10 mM, pH 7.4) containing 10 μg/mL each chymostatin, antipain, leupeptin and pepstatin, 1 mM DTT and 1 mM PMSF. Cells were lysed in a Polytron PT 1200 homogenizer (Kinematica AG, Switzerland) after 3 cycles of rapid freeze-thawing. The lysate was centrifuged at 16,000 rpm for 60 min at 4° C., and the supernatants were used as cell-free extracts.
The protein in the extracts was measured by BCA assay reagent using BSA as standard (Smith et al. 1985). The reaction mixture for iNOS assay consists of Tris 50 mM (pH 7.8); BSA 1 mg/mL; DTT 1 mM; CaCl2, 2 mM; FAD 10 μM; BH4 10,μM; L-arginine 30 μM; NADPH 1 mM. The reaction mixture was spiked with 1μL (250 nM) of L-[^3 H]-arginine (Dupont NEN, Boston, Mass.) (1 mCi/mL=37.0 MBq/mL). After 20 min the assays were terminated by heating the reaction mixture at 90° C. for 5 min. Ten microiters (≈100,000 cpm) of the supernatant was spotted on activated AVICEL TLC plates (Analtech, Newark, Del.). The TLC plates were developed in a solvent system consisting of ethanol:water:ammonia (80:16:4). Quantitation of the spot for L-[^3 H]-citrulline was performed by a Bioscan System 200 Imaging Scanner.

iNOS [2] = details: in vitro; Amin et al. 1995b; cited from earlier work
[3] = test system: iNOS expression in mesangial cells; details: Pfeilschifter et al. (1995); cited from earlier work
iNOS mRNA [4] = experiment: iNOS mRNA expression in LPS-stimulated RAW cells (Northern blot); assay type: cell-based, murine; details: Mus musculus
Method: Northern blot analysis of the iNOS MRNA expressed by the cells was then carried out to evaluate precisely the effect of iNOS expression in the presence of doxycycline and minocycline. The probes again were the iNOS and β-actin CDNA probes described above.
In this case, total RNA was isolated using TRI Reagent (MRC Inc., Cincinnati, Ohio). […] Briefly, 30 μg of RNA was subjected to electrophoresis in 1% agarose formaldehyde gel. The gel was then transferred via capillary action onto a nylon membrane (Zeta Probe, Bio-Rad Laboratories, Melville, N.Y.). The membrane was hybridized with [^32 P]-dCTP-labeled iNOS CDNA (4 kb SmaI fragment), a kind gift from Dr. James Cunningham (Harvard Medical School, Boston, Mass.). After hybridization, the blot was exposed to Kodak X-ray film (Kodak, Rochester, N.Y.) for 24-48 h with intensifying screens at -70° C. The β-actin probe was purchased from ClonTech (Palo Alto, Calif.) and probed as described above. Quantitation of the intensity of the iNOS/β-actin bands was performed using a phosphoimager (Molecular Dynamics, Sunnyvale, Calif.).

133 kD iNOS = experiment: iNOS protein expression in LPS-activated RAW 264.7 cells (Western blot); assay type: cell-based, murine; details: 10 μM, positive control
Method: RAW 264.7 cells were activated with 100 ng/mL LPS for 16-18 h, with and without doxycycline or minocycline (20-80 μg/mL) or with hydrocortisone (10 μM). Cell-free extracts were prepared as described above. The extract s were analyzed for 133 kD iNOS by Western blotting, using specific anti-iNOS antibodies.
Equal amounts of protein (25-50 μg) estimated by BCA reagent (Pierce, Rockford, Ill.) were loaded onto SDS-PAGE gels and stained to verify the concentrations of various protein fractions by examining the intensities of the protein bands on the gels. Western blot analysis was carried out from the same cell extracts. The Western-blotted membrane was probed with a specific anti-murine iNOS monoclonal antibody (Transduction Laboratories, Lexington, Ky.), as specified by the supplier. The same blot was also probed with an anti-actin antibody generously provided by Dr. James L. Lessard (Children's Hospital Medical Center, Cincinnati, Ohio). The blots were developed using the ECL Western blot system (Amersham, Arlington Heights, Ill.). Quantitation of the bands was performed using a densitometer from Molecular Dynamics (Sunnyvale, Calif.). FIG. 5 is representative.

[5] = test system: iNOS expression in macrophages; details: Nathan et al. 1994, Vodovotz et al. 1993; cited from earlier work
iNOS mRNA [6] = experiment: iNOS mRNA expression in LPS-stimulated RAW 264.7 cells (RT-PCR); assay type: cell-based, murine; details: Mus musculus, RAW264.7, read-out: decrease of iNOS mRNA
Method: Doxycycline and minocycline may suppress iNOS before the synthesis of the enzyme, leading to inhibition of iNOS protein expression, specific activity and accumulation of nitrite. […] Therefore, to determine the level at which tetracycline inhibited iNOS protein expression, RAW 264.7 cells treated with LPS in the presence or absence of doxycycline and minocycline were analyzed for iNOS mRNA by semi-quantitative RT-PCR.
The presence of iNOS and β-actin mRNA in cells was analyzed by reverse transcription (RT) of total RNA followed by PCR amplification of the cDNA. The sense and antisense oligonucleotides for iNOS were, respectively, 5'-ACGGAGAAGCTTAGATCTGGAGCAGAAGTG-3'(142 to 171) (SEQ ID NO:1) and 5'-CTGCAGGTTGGACCACTGGATCCTGCCGAT-3' (767 to 796) (SEQ ID NO:2). The sense and antisense primers for β-actin were 5'-TCCTTCGTTGCCGGTCCACA-3' (44 to 63) (SEQ ID NO:3) and 5'-CGTCTCCGGAGTCCATCACA-3' (534 to 552) (SEQ ID NO:4), respectively. The predicted PCR product of the iNOS cDNA was 654 bp; that of the β-actin cDNA was 508 bp. The polymerase chain reaction was carried out in an automated DNA thermal cycle (Perkin-Elmer Cetus, Norwalk, Conn.). The total RNA was extracted using TRI-Reagent (MRC Inc., Cincinnati, Ohio). The cDNA was prepared from equal amounts (1-5 μg) of total RNA using a SuperScript™ RNase H Reverse Transcriptase (Gibco BRL, Gaithersburg, Md.). An equal amount of the cDNA was used to amplify the mRNA by PCR. PCR amplification was performed in 50 μL solution containing 1.5 mM MgCl2, 500 ng iNOS primer, 100 ng β-actin primer, 0.2 mM of each dNTP, 2.5 units of Taq DNA polymerase (Gibco). The cycle conditions for amplification of cDNA were 1 min at 94° C., 1-2 min at 55° C. and 3 min at 72° C. for 30 cycles for both iNOS and β-actin. The PCR product was analyzed by electrophoresis on 1.0% agarose gels.
RT-PCR analysis of iNOS and βactin mRNA expression in RAW 264.7 cells was carried out after stimulation with LPS±doxycycline or minocycline. […] Equal amounts of RNA were analyzed for iNOS and β-actin expression as described above.

In the case of `CC1(O)c2cccc(O)c2C(=O)C2=C(O)C3(O)C(=O)C(C(N)=O)=C(O)CC3CC21` (centres unmarked) [CMT-1, 4-dedimethylaminotetracycline], the “NO production (% of control)” value (renal mesangial cells; 10 μg/mL, after 48 hr) is given as ~ 60 % of control and the anti-collagenase activity (collagenase) is given as “modest anti-collagenase activity”.

For `NC(=O)C1=C(O)C2(O)C(=O)C3=C(O)c4c(O)cccc4CC3CC2CC1=O` (centres unmarked) [CMT-3, 6-demethyl-6-deoxy-4-dedimethylaminotetracycline], the “inhibition of NO production, time course” value (renal mesangial cells) is listed as “time-dependent inhibition of NO production”, the Emax at 5 µg/mL (renal mesangial cells) is listed as over 80% and the anti-collagenase activity (collagenase) is listed as “high level of anti-collagenase activity”.

In the case of `C[C@H]1c2cccc(O)c2C(O)=C2C(=O)[C@]3(O)C(O)=C(C(N)=O)C(=O)C[C@@H]3[C@@H](O)[C@@H]21` [CMT-8, 6-α-deoxy-5-hydroxy-4-dedimethylaminotetracycline], the “inhibition of NO production, time course” value (renal mesangial cells) is listed as “time-dependent inhibition of NO production”, the Emax at 5 µg/mL (renal mesangial cells) is listed as over 80% and the anti-collagenase activity (collagenase) is listed as “high level of anti-collagenase activity”.

For `CN=C(N)NCCC[C@H](N)C(=O)O` [L-NMMA], the “inhibition of NOS activity” value (NOS) is listed as over 95% and the “inhibition of iNOS activity” value (iNOS [1]; 75 μM) is listed as 64%.

For `CC(=O)n1ccnc1` [N-acetyl imidazole, N-acetylimidazole], the “inhibition of iNOS catalytic activity” value (iNOS [2]) is given as “inhibit iNOS catalytic activity in vitro”.

In the case of `CC(=O)Oc1ccccc1C(=O)O` [aspirin], the “inhibition of iNOS catalytic activity” value (iNOS [2]) is given as “inhibit iNOS catalytic activity in vitro”.

For `C[C@@H]1C[C@H]2[C@@H]3CCC4=CC(=O)C=C[C@]4(C)[C@@]3(F)[C@@H](O)C[C@]2(C)[C@@]1(O)C(=O)CO` [dexamethasone], the “suppression of IL-1β-induced iNOS expression” value [3] is listed as “acts at multiple levels (including transcription of iNOS) to suppress IL-1β-induced iNOS expression”.

In the case of `C[C@]12CCC(=O)C=C1CC[C@@H]1[C@@H]2[C@@H](O)C[C@@]2(C)[C@H]1CC[C@]2(O)C(=O)CO` [hydrocortisone], the inhibition at 10 µM (iNOS mRNA [4]; read-out: inhibition of iNOS mRNA expression, 10 μM, doxycycline experiment (FIG. 6C)) was 73%, the inhibition at 10 µM (iNOS mRNA [4]; read-out: inhibition of iNOS mRNA expression, 10 μM, minocycline experiment (FIG. 6D)) was 76% and the “inhibition of iNOS protein expression” value (133 kD iNOS) was 43%. The “suppression of iNOS expression” value [5] was “suppress iNOS expression by decreasing mRNA expression”, the “inhibition of iNOS activity” value (iNOS [1]; 10 μM) was 60% and the inhibition at 10 µM (iNOS mRNA [6]) was 50 to 100%.

For “TGF-β1: suppresses iNOS expression in macrophages”, the “suppression of iNOS expression” value [5] is given as “suppress iNOS expression by decreasing mRNA expression”.
